One assay concerns U-251 MG cells. In words: Cell viability assay (MTT), CPT-11 after adenoviral infection. Format: cell-based. As to conditions: Homo sapiens, U-251, 48 h, CPT-11 added 48 hours later. The procedure: (§1) Cell cycle analysis. The DNA content was measured in samples of 10^6 cells that had been infected with 10 MOIs of Delta-24 or UVi Delta-24 or had been mock infected. Forty-eight hours later, cultures were treated with CPT-11 (4 μmol/L) or vehicle. Cells were trypsinized 3 to 5 days after drug treatment, fixed in 70% ice-cold ethanol, and incubated with propidium iodide (5 μg/mL) and RNase A (1 μg/mL) for 20 minutes at 37° C. All DNA content measurements were done with an EPICS XL-MCL cytometer (Coulter Corp., Hialeah, Fla.) equipped with an air-cooled argon ion laser emitting 488 nm at 15 mW. A multicycle program (Phoenix Flow System; Phoenix Controls Corp., San Diego, Calif.) was used for data analysis. Cell viability assays. The chemosensitivity of the treated glioma cells was assessed by using the tetrazolium salt 3-(4,5-dimethylthiazol-2-yl)-2,5-diphenyltetrazolium bromide (Sigma-Aldrich) to measure cell viability. For this assay, 2×10^3 cells per well were seeded in 96-well microtiter plates and infected 24 hours later with Delta-24 (at 1, 2.5, 5, or 10 MOs) or Uvi Delta-24 (10 MOs) or were mock infected. Forty-eight hours after adenoviral treatment, the cells were treated with various concentrations of CPT-11. Triplicate wells were used for each condition. Sixteen wells seeded with untreated glioma cells were used as a viability control, and 16 wells containing only complete medium were used as a control for nonspecific dye reduction. Medium was removed 72 hours after drug treatment, and 100 μL 3-(4,5-dimethylthiazol-2-yl)-2,5-diphenyltetrazolium bromide solution (1 mg/mL) was added to each well. The plates were then incubated for an additional 4 hours and then read on a Spectramax 190 microplate reader (Molecular Devices, Sunnyvale, Calif.) at a test wavelength of 570 nm.

The next assay relates to U-87 MG cells. The assay is described as above. Type of assay: cell-based. To be noted: Homo sapiens, 48 h. The procedure:
as §1

Assay [1] deals with U-87 MG human glioma xenograft. Kind of assay: Intracranial human glioma xenograft, Delta-24/CPT-11 sequential treatment. As to conditions: Delta-24 1.5×10^8 viral particles intratumoral day 3; CPT-11 5 mg/kg i.p. days 7, 12, 20; control median survival 27 days. Format: in vivo, athymic mice. Here is the method: Animal model. To assess the potential therapeutic relevance of the findings from the in vitro studies, we tested the Delta-24/CPT-11 sequential treatment in an in vivo model of a human glioma xenograft implanted intracranially. The U-87 MG cell line was selected as an exemplary cell line because it produces gliomas in nude mice with highly predictable growth kinetics and well-characterized pathologic features (Lal et al., 2000). To perform a reliable multiple-dose experiment, an implantable guide-screw system was developed that allows for multiple, precise intratumoral administrations of a therapeutic agent(s) (Lal et al., 2000) and has been validated for testing the antiglioma effect of Delta-24 (Fueyo et al., 2003). In this study, 5×10^5 cells of the U-87 MG human glioma cell line were engrafted in the caudate nucleus of athymic mice (Harlan- Sprague-Dawley, Inc., Indianapolis, Ind.). On day 3 after cell implantation, animals were treated with a single intratumoral injection of Delta-24 or UVi Delta-24 (1.5×10^8 viral particles in 5 μL). […] H&E-stained slides were analyzed for evidence of tumor, necrosis, and viral nuclear inclusions. […]
Statistical analyses. […] The in vivo anticancer effect of different treatments was assessed by plotting survival curves according to the Kaplan-Meier method, and groups were compared using the log-rank test.
On the technique in general: In xenograft studies the graft and the host belong to different species.

Assay [2] relates to U-87 MG and U-251 MG glioma cells. Kind of assay: Cell viability assay (MTT), CPT-11 and Delta-24, results stated for both cell lines. Type of assay: cell-based, human. Here is the method:
as §1, with “For this assay, 2×10^3 cells per well were seeded in 96-well microtiter plates and infected 24 hours later with Delta-24 (at 1, 2.5, 5, or 10 MOs) or Uvi Delta-24 (10 MOs) or were mock infected.” left out, “Sixteen wells seeded with untreated glioma cells were used as a viability control, and 16 wells containing only complete medium were used as a control for nonspecific dye reduction. Medium was removed 72 hours after drug treatment, and 100 μL 3-(4,5-dimethylthiazol-2-yl)-2,5-diphenyltetrazolium bromide solution (1 mg/mL) was added to each well.” left out

The test system of assay [3] is U-87 MG and U-251 MG human glioma cells. In words: Cell cycle analysis (DNA content, flow cytometry), Delta-24 and CPT-11. Format: cell-based. As to conditions: CPT-11 4 μmol/L, alone or 48 hours after 10 MOIs Delta-24. The procedure: as §1, with “Forty-eight hours after adenoviral treatment, the cells were treated with various concentrations of CPT-11. Triplicate wells were used for each condition. Sixteen wells seeded with untreated glioma cells were used as a viability control, and 16 wells containing only complete medium were used as a control for nonspecific dye reduction. Medium was removed 72 hours after drug treatment, and 100 μL 3-(4,5-dimethylthiazol-2-yl)-2,5-diphenyltetrazolium bromide solution (1 mg/mL) was added to each well.” left out
In general terms: Flow cytometry measures light scatter and fluorescence of single cells or particles in a stream.

For another assay, the system named is U87-MG xenografts. In words: Intracranial glioma xenograft, ICOVIR-5 in combination with RAD001 or TMZ. As to conditions: ICOVIR-5 3×10^7 pfu/mouse intratumoral day 3, 5, 7; RAD001 5 mg/kg/d; TMZ 7.5 mg/kg/5 days; control 30.5 days. Type of assay: in vivo, athymic mice. The procedure: Animal Studies. U87 MG human glioma cells (5×10^5) were engrafted into the caudate nucleus of athymic mice using a guide-screw system, as previously described (Lal, 2000). The inventors performed three independent experiments using 10 animals per group in each experiment. On days 3, 5, and 7 after implantation of tumor cells, animals were treated with 5 μl intratumoral injections of ICOVIR-5, PBS or adenovirus control (all 3×10^8 pfu/ml). Animals showing general or local symptoms of toxicity were killed. Surviving animals were killed 140 days after tumor implantation. Brains were then removed, fixed in 4% formaldehyde for 24 hours at room temperature, and embedded in paraffin. Hematoxylin-and-eosin-stained sections were evaluated for evidence of tumor, necrosis, and viral nuclear inclusions. The largest (a) and the smallest (b) diameters of the tumors were measures, and these measurements were used in the calculation of tumor volume using the formula a×b2×0.4 (Attia, 1966). […]
Statistical Analysis. […] Data are expressed as mean±SD or 95% confidence intervals (CIs). The in vivo cytopathic effect of ICOVIR-5 on human glioma xenografts was assessed by plotting survival curves according to the Kaplan-Meier method. […]

For a further assay, the system named is U-87 MG cell line. Kind of assay: In vitro combination of ICOVIR-5 with TMZ or RAD001. Type of assay: cell-based, human.

Where two headings read alike, the source gives them in different places.

For `CCc1c2c(nc3ccc(OC(=O)N4CCC(N5CCCCC5)CC4)cc13)-c1cc3c(c(=O)n1C2)COC(=O)[C@]3(O)CC` [CPT-11, irinotecan], the IC50 with U-251 MG cells (read-out: IC50 dose of CPT-11, U-251 MG cells infected with Delta-24 at 10 MOIs) stood at 1000 nM; in the assay on U-251 MG cells (read-out: IC50 dose of CPT-11, UVi Delta-24-infected U-251 MG cells), 7200 nM; with U-87 MG cells (read-out: IC50 dose of CPT-11, U-87 MG cells infected with Delta-24 at 10 MOIs, CPT-11 added 48 hours later), 1500 nM; in the assay on U-87 MG cells (read-out: IC50 dose of CPT-11, U-87 MG cells infected with UVi Delta-24, CPT-11 added 48 hours later) it was 3400 nM; in assay [2] (Homo sapiens, read-out: IC50 for CPT-11, both U-87 MG and U-251 MG cells infected with 2 MOIs of Delta-24), 2500 nM. For the same molecule, the “extension of survival (average) over control” value in assay [1] is 4 days. In addition, in assay [2] (both cell lines, CPT-11 alone), the “inhibition of cell proliferation” value is “inhibited cell proliferation in a concentration dependent fashion”. Moreover, the “cells in the G2-M phase” value in assay [3] is > 55 % of the cells in culture.
With `CO[C@H]1C[C@@H]2CC[C@@H](C)[C@@](O)(O2)C(=O)C(=O)N2CCCC[C@H]2C(=O)O[C@H]([C@H](C)C[C@@H]2CC[C@@H](OCCO)[C@H](OC)C2)CC(=O)[C@H](C)/C=C(\C)[C@@H](O)[C@@H](OC)C(=O)[C@H](C)C[C@H](C)/C=C/C=C/C=C/1C` [RAD001], the mean survival in the assay on U87-MG xenografts stood at 49 days. Also, the “effect of drug on adenoviral replication in vitro (fiber expression, western blot and RT-QT-PCR)” value in the assay with U-87 MG cell line is “neither RAD001 nor TMZ suppressed adenoviral replication in vitro”.
Regarding `Cn1nnc2c(C(N)=O)ncn2c1=O` [TMZ, temozolomide], in the assay on U87-MG xenografts, the mean survival worked out at 35.5 days.

The values above are taken from patent US20070292396A1, “COMBINATION THERAPY WITH ONCOLYTIC ADENOVIRUS” (priority 2006, published 2007).
